Source: patent US20110039904A1, “Alcohol alkoxylates, agents comprising the same and use of the alcohol alkoxylates as adjuvants in the agrochemical field” (BASF SE, priority 2008, published 2011)

System: leaf rust of wheat "Puccinia recondita"
Assay: Biotest: curative control of leaf rust of wheat (fungicidal efficacy of epoxiconazole with adjuvant)
Format: in vivo, Puccinia recondita on wheat seedlings "Kanzler"
Conditions: 50 ppm epoxiconazole without adjuvant; sprayed 2 days after inoculation; rated after 10 days; wheat seedlings, greenhouse
Protocol: 125 g/l epoxiconazole were ground together with in each case 20 g/l dispersant (Atlas G 5000^1, Synperonic A^1) and 50 g/l propylene glycol in aqueous medium in a stirred-ball mill (dyno-mill) until a particle size of 80% <2 μm was reached. To the mixture were added 3 g/l per liter antifoam, for example Rhodorsil 426^2, 3 g/l thickener, for example Rhodopol 23^2, and a biocide, for example Acticide MBS^3. The respective adjuvant, in aqueous solution or in a solvent, for example Solvesso, was stirred into this mixture, so that the final concentration of the formulation is composed of 62.5 g/l epoxiconazole and 125 g/l adjuvant.
Biotest (curative control of leaf rust of wheat):
Leaves of wheat seedlings of the species “Kanzler” which had been grown in pots were dusted, in the two-leaf stage, with spores of leaf rust of wheat “Puccinia recondita” and incubated for 2 days in the greenhouse at high atmospheric humidity. In fully automated spray cabins, the plants were then sprayed with the formulations which comprised the active ingredients and adjuvants specified hereinbelow. The spray mixtures comprised 50 ppm epoxiconazole and 100 ppm adjuvant. The ratio active ingredient to adjuvant was, accordingly, 1:2. […] After 10 days, the extent of the leaf rust disease was determined visually as disease percent of the total leaf area. 3 pots were evaluated for each combination.

## Fc1ccc([C@]2(Cn3cncn3)O[C@H]2c2ccccc2Cl)cc1 (racemic) [Epoxiconazole, epoxiconazole]
  % infection (leaf rust disease percent of the total leaf area, determined visually): 23%
